Experimental data taken from patent US10537535B2, “Histone deacetylase inhibitors” (The Regents of the University of California, priority 2015, dated 2020).

What was measured:
[1] = test system: H4K5 acetylation in HEK293 cells; test: Western blot of histone acetylation in HEK293 nuclear extracts: H4K5; type: cell-based, human
Protocol: (§1) In order to test whether diacetyl can increase acetylation of histones in vivo, human HEK293 cells were used, which offer a tractable system to prepare nuclear extracts. The cells were exposed to different doses of diacetyl for 2 or 6 hours, and monitored histone acetylation levels by Western blot analysis from nuclear extract. […] The acetylation levels of H3K14 and H4K5 were not affected (FIG. 5A).
(§2) Human embryonic kidney 293 (HEK293) cells were grown in 100 mm cell culture dishes with Dulbecco's modified Eagle's medium (DMEM) (10-013, Corning, Manassas, Va.), supplemented with 10% fetal bovine serum (FBS) (26140-079, Gibco, Carlsbad, Calif.) at 37° C. with 5% CO2. Cells that were ˜80% confluent were treated with freshly-prepared medium supplemented with diacetyl at concentrations indicated. In order to prevent diffusion of diacetyl odor from the treatment dishes to the outside environment, the cell culture dishes were put into a custom-made container (155.6×155.6×85.7 mm) with a charcoal filter top. […]
(§3) Proteins in the nuclear extracts (60 μg protein) were separated by SDS-PAGE gels (456-1043, Bio-Rad, Hercules, Calif.), transferred onto PVDF membranes (162-0174, Bio-Rad), and incubated with anti-histone antibodies: acetylated H3K9 (1/2000: ab4441, abeam, Cambridge, Mass.), acetylated H3K14 (1/5000: 06-911, EMD Millipore, Billerica, Mass.), acetylated H4K5 (1/2000: 07-327, EMD Millipore). Bound antibody was detected by horseradish peroxidase-conjugated anti-rabbit secondary antibody (1/20000: 1705046, Bio-Rad) and developed using Clarity™ Western ECL Substrate (1705060, Bio-Rad). Signals were detected and captured by ImageQuant™ LAS 4000 mini (GE healthcare, Pittsburgh, Pa.), and band intensities were quantified with ImageJ software. H3K9 acetylation intensity in individual lanes was reported relative to the normalized Mock treatment (Mock H3K9ace/Mock PCNA), and calculated using this formula: Relative H3K9ace intensity for each timepoint=(Diacetyl H3K9ace/diacetyl PCNA)/(Mock H3K9ace/Mock PCNA).

human HDAC2 = target: T1, human HDAC2 (Homo sapiens, UniProt Q92769); test: Fluorometric HDAC activity assay, purified human HDAC2; type: biochemical; conditions: purified human HDAC2, n=4-5
T1 construct: purchased BPS Bioscience 50062
T1 sequence (Q92769 whole entry): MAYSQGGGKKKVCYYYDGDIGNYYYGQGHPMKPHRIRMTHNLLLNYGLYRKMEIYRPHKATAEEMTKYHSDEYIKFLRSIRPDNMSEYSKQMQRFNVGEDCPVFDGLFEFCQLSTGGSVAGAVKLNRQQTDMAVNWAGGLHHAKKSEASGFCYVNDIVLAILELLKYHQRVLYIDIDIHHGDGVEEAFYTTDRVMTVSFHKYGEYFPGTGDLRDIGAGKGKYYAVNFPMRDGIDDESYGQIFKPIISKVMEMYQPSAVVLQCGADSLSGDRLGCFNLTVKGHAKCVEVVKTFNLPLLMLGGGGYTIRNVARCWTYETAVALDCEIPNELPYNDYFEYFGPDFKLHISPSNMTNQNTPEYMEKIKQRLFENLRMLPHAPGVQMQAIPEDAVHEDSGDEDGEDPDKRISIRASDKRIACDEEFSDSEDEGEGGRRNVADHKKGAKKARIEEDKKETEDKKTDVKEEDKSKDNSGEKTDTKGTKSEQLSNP
Protocol: In order to directly test whether diacetyl acts as an inhibitor of HDACs, in vitro acetylation assays was performed with purified human HDACs. In this example, β-hydroxybutyrate (a naturally-occurring HDAC inhibitor secreted by the liver, targeting zinc-dependent HDACs) was used for comparison. HDAC activity of class I HDACs (HDAC1, 2, 3 and 8) was measured with the fluorometric HDAC Activity Assay kit: HDAC1 (10011563, Cayman Chemical, Ann Arbor, Mich.), HDAC2, HDAC 3 and HDAC 8 (50062, 50073 and 50068, BPS Bioscience, San Diego, Calif.), according to the manufacturer's instructions.

human HDAC1 = target: T2, human HDAC1 (Homo sapiens, UniProt Q13547); test: Fluorometric HDAC activity assay, purified human HDAC1; type: biochemical
T2 construct: purchased Cayman Chemical 10011563
T2 sequence (Q13547 whole entry): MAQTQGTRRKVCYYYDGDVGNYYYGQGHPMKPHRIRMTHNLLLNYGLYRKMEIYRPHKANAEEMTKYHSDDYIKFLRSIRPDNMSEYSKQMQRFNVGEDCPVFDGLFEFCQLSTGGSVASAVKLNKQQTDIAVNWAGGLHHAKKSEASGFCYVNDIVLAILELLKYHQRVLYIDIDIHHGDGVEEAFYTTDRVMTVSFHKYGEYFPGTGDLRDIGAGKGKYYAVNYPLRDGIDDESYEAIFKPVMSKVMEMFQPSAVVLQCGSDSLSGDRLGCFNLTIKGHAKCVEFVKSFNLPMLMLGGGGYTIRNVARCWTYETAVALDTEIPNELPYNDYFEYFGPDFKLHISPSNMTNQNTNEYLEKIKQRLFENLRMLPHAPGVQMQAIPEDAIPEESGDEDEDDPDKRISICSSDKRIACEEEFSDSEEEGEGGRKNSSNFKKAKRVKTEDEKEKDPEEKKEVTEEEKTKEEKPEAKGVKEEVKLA
Protocol: The ability of diacetyl (odor 1) to inhibit human HDAC activity was investigated using in-vitro assays with a human HDAC1 kit.
In order to directly test whether diacetyl acts as an inhibitor of HDACs, in vitro acetylation assays was performed with purified human HDACs. […]
HDAC activity of class I HDACs (HDAC1, 2, 3 and 8) was measured with the fluorometric HDAC Activity Assay kit: HDAC1 (10011563, Cayman Chemical, Ann Arbor, Mich.), HDAC2, HDAC 3 and HDAC 8 (50062, 50073 and 50068, BPS Bioscience, San Diego, Calif.), according to the manufacturer's instructions.

[2] = test system: H3K14 acetylation in HEK293 cells; test: Western blot of histone acetylation in HEK293 nuclear extracts: H3K14; type: cell-based, human
Protocol: as §1, §2, §3

IC50 (human HDAC2): 11.2 mM | IC50 (human HDAC1; purified human HDAC1, n=4-5): 7.2 mM
Compound: CC(=O)C(C)=O [diacetyl, 2,3-Butanedione]
H4K5 acetylation level ([1]; 1 mM, 2 or 6 hours): did not alter | H4K5 acetylation level ([1]; 10 mM, 2 hours): not affected | H4K5 acetylation level ([1]; 10 mM, 6 hours): unaffected | inhibition of human HDAC activity (human HDAC1 kit) (human HDAC1; compared with sodium butyrate, FIG. 1C): effective HDAC inhibitor and comparable to sodium butyrate | H3K14 acetylation level ([2]; 1 mM, 2 or 6 hours): did not alter | H3K14 acetylation level ([2]; 10 mM, 2 hours): not affected | H3K14 acetylation level ([2]; 10 mM, 6 hours): unaffected
